{
  "source": "patent US20090030066A1",
  "about": "“SMALL MOLECULES FOR THE PROTECTION OF PANCREATIC CELLS” (priority 2007, published 2009)",
  "key": {"[1]": {"tested_on": "L-arginine-treated rats", "test": "L-arginine-treated rat model of necrotic pancreatitis", "assay_type": "in vivo", "text": "L-arginine-treated rats are frequently used experimental tools to model necrotic pancreatitis [Krajewski, E., Krajewski, J., Spodnik, J. H., Figarski, A. and Kunasik-Juraniec, J. (2005) Changes in the morphology of the acinar cells of the rat pancreas in the oedematous and nectoric types of experimental acute pancreatitis. Folia Morphol. 64, 292-303]. L-arginine is a precursor of NO which primarily destroys the exocrine pancreas with subsequent damage of insulin producing islet cells. Just like pancreatitis is often associated with elevated blood glucose level in human patients, extensive damage of pancreas in the L-arginine-treated animal model also results in damaged function of β-cells as indicated by higher blood glucose levels. In this example, the L-arginine-treated rat model was employed to see if CCompound1 could also prevent or reduce deterioration of β-cell function and the damage of the exocrine pancreas.\nMale Wistar rats weighing 220-250 g were divided into four groups, each group consisting of 6 animals. To ensure standard conditions animals were starved for 16 hours before the start of the experiment. CCompound1 was first injected 24 hours prior to L-arginine injection, followed by similar daily injections for 5 consecutive days. In the first group, rats remained untreated. On day 0, animals in groups 2-4 were injected 2×2.5 g/kg L-arginine i.p. at one hour intervals. Animals in group 4 also received daily s.c. injection of 4.5 mg/kg of CCompound1 between days −1 and 5. To verify development of acute pancreatitis, 24 hours after L-arginine injections rats in group 2 were anesthetized with 45 mg/kg pentobarbital i.p. and exsanguinated through the abdominal aorta. On day 0, 2, 4 and 6 blood sugar values of the experimental animals were measured after fasting for 8 hours with the C-test; blood samples were taken from the tail. Edema of the pancreatic tissue was assessed by the pancreatic weight/body weight ratio. The animals in the remaining groups were sacrificed on day 7.\nFor histological examinations, a portion of the head of the pancreas was fixed in 4% neutral formaldehyde solution and embedded in paraffin. Tissue slices were stained with hematoxylin and eosin and examined by light microscopy. Slices were coded and examined blind by a pathologist for the grading of histological alterations. The extent and intensity of pancreatic edema, leukocyte infiltration, acinar vacuolization, hyperemia and tubular transformation were described with scores ranging from 0 to 3. The total histological damage was calculated by adding the scores for the various below listed parameters together.\nHyperemia; defined as the amount of red blood cells in the vessels.\nEdema; defined as the widening of interstitial space.\nVacuolization; defined as the formation of vacuoles in the cytoplasm of acinar cells. Vacuolization results from the fusion of zymogene granules and lysosomes.\nInflammation; defined and quantified by the infiltration of the tissue with mononuclear inflammatory cells (lymphocytes, plasma cells, and mast cells).\nNecrosis; defined as the measure of the extent of the destruction of normal pancreatic tissue structure.\nTubular transformation; defined as desquamation of acinar cell apical cytoplasm and release of cytoplasm segments into the acinar lumen leading to formation of duct-like tubular complexes. (Elsässer H. P., Adler G and Kern H. F. (1986) Time course and cellular source of pancreatic regeneration following acute pancreatitis in the rat. Pancreas 1 (5) 421-9).\nTotal histological damage (total damage); defined and calculated by combining the histological scores of the above mentioned parameters (except vacuolization). This value is the generally accepted best representation of the severity of pancreatitis in the art. […]"}, "[2]": {"tested_on": "AR42J rat pancreatic tumor cell line", "test": "MTT proliferation of AR42J pancreatic tumor cells", "assay_type": "cell-based", "conditions": "96 h", "text": "(§1) In the Examples below, an MTT assay was used to determine the relative number of viable cells after treatments. This calorimetric assay is based on the ability of living cells, but not dead cells, to reduce 3-(4,5-dimethyl thiazol-2-yl)-2,5-diphenyltetrazolium bromide. [Carmichael, J, De Graff, W. G., Gazdar, A. F., Minna, J. D. and Mitchell, J. B. (1987) Evaluation of tetrazolium-based semiautomated calorimetric assay: Assessment of chemosensitivity testing. Cancer Res. 47, 936-942], which is hereby incorporated by reference. For this assay, cells were plated in 96-well plates, and the MTT assay was performed as described in the above article both in untreated and treated cell cultures. The MTT assay also was performed at the time when the treatment was started to allow for assessment of the proliferation and survival rates in the control and treated cell cultures. In the MTT assay, higher values mean proportionally higher numbers of viable cells.\nThe AR42J rat pancreatic tumor cell line, purchased from ATTC (catalog number: CRL-1492), was propagated in modified Ham's medium containing 20% fetal bovine serum. These cells, derived from a transplantable tumor of the exocrine pancreas, contain significant amounts of amylase and other exocrine enzymes and they produce tumors in athymic mice.\nFor the experiment, cells were split in 96-well plates at 15,000 cells per well. After 24 hours, the medium was changed for fresh medium (0 hour) and various concentrations of CCompound1 and CCompound3 were added and incubations continued for 96 hours. The MTT assay was used to determine the relative number of viable cells. From the data shown in TABLE 13, in the 2-25 μM concentration range CC compounds had only inhibitory effects on the proliferation of pancreatic cancer cells."}, "[3]": {"tested_on": "NIT-1 β-cells", "test": "MTT viability of STZ-treated NIT-1 islet β-cells", "assay_type": "cell-based, mouse", "conditions": "for A540 (MTT, relative number of viable cells): 30 h, 2% serum, mean ± std. dev. n=8", "text": "as §1\nNIT-1 β-cells, originally isolated from transgenic NOD mouse carrying SV 40 large T antigen gene on a rat insulin promoter, were obtained from American Type Culture Collection (ATCC CRL-2055). NIT-1 cells contain and secrete insulin, while at the same time they retained their ability to proliferate in the presence of an appropriate stimulus. The cells, maintained in Ham's F12K medium containing 10% heat-inactivated dialyzed fetal bovine serum, were used between passages 32-35.\nIn this experiment, NIT-1 cells were seeded into 96-well plates. After 24 hours, the medium was replaced with fresh 2% fetal bovine serum containing medium, followed by treatments with 2-50 μM of CCompound1 and 30 min later with 20 mM STZ. Treatments were for 30 hours followed by the MTT assay to determine the relative number of viable cells (expressed as A540)."}, "[4]": {"conditions": "L-arginine + compound, pancreas, day 7"}},
  "data": [
    {"smiles": "Cc1c(OCC(O)C[N+](C)(C)C)cc2c(=O)c3ccccc3sc2c1C.[Cl-]", "note": "(centres unmarked) [CCcompound1, [3-(3,4-Dimethyl-9-oxo-9H-thioxanthen-2-yloxy)-2-hydroxypropyl]trimethyl-ammonium chloride]", "values": [
      {"measurement": "effect on L-arginine-stimulated blood glucose", "setting": "[1]; 4.5 mg/kg s.c. daily", "value": "reduced L-arginine-stimulated blood glucose to control level"},
      {"measurement": "Blood glucose", "setting": "[1]; L-arginine 2×2.5 g/kg i.p. day 0 + compound 4.5 mg/kg s.c. daily days −1 to 5, fasted 8 h, day 0", "value": "6.28 ± 0.31", "unit": "mM"},
      {"measurement": "effect on tissue necrosis", "setting": "[1]; L-arginine + compound", "value": "significant reduction in tissue necrosis"},
      {"measurement": "Blood glucose", "setting": "[1]; L-arginine + compound 4.5 mg/kg s.c. daily, fasted 8 h, day 2", "value": "6.46 ± 0.33", "unit": "mM"},
      {"measurement": "Blood glucose", "setting": "[1]; L-arginine + compound 4.5 mg/kg s.c. daily, fasted 8 h, day 4", "value": "6.26 ± 0.21", "unit": "mM"},
      {"measurement": "Blood glucose", "setting": "[1]; L-arginine + compound 4.5 mg/kg s.c. daily, fasted 8 h, day 6", "value": "6.00 ± 0.49", "unit": "mM"},
      {"measurement": "insulin staining score (scale 0 to 3)", "setting": "[1]; L-arginine + compound, day 7, immunohistochemistry of pancreas", "value": "2.45±0.30"},
      {"measurement": "Edema histological score (0 to 3)", "setting": "[1]; [4]", "value": "1.33 ± 0.21"},
      {"measurement": "Hyperemia histological score (0 to 3)", "setting": "[1]; [4]", "value": "1.17 ± 0.17"},
      {"measurement": "Inflammation histological score (0 to 3)", "setting": "[1]; [4]", "value": "2.00 ± 0.00"},
      {"measurement": "Necrosis histological score (0 to 3)", "setting": "[1]; [4]", "value": "1.25 ± 0.36"},
      {"measurement": "Total damage (sum of histological scores except vacuolization)", "setting": "[1]; [4]", "value": "7.75 ± 0.70"},
      {"measurement": "Tubular transformation histological score (0 to 3)", "setting": "[1]; [4]", "value": "2.00 ± 0.37"},
      {"measurement": "Vacuolization histological score (0 to 3)", "setting": "[1]; [4]", "value": "1.17 ± 0.17"},
      {"measurement": "protection of endocrine and exocrine pancreatic cells", "setting": "[1]; L-arginine-induced necrotic pancreatitis model", "value": "partially or fully protected both the endocrine and exocrine pancreatic cells"},
      {"measurement": "A540 (MTT, relative number of viable cells)", "setting": "[2]; 2 μM", "value": "1.092 ± 0.083"},
      {"measurement": "A540 (MTT, relative number of viable cells)", "setting": "[2]; 5 μM", "value": "0.954 ± 0.080"},
      {"measurement": "A540 (MTT, relative number of viable cells)", "setting": "[2]; 10 μM", "value": "0.882 ± 0.062"},
      {"measurement": "A540 (MTT, relative number of viable cells)", "setting": "[2]; 25 μM", "value": "0.781 ± 0.090"},
      {"measurement": "effect on the inhibitory effects of STZ on cell proliferation", "setting": "[3]; 10 μM", "value": "almost fully reverses"},
      {"measurement": "effect on the inhibitory effects of STZ on cell proliferation", "setting": "[3]; 50 μM", "value": "added to the inhibitory effects of STZ"},
      {"measurement": "effect on the inhibitory effects of STZ on cell proliferation", "setting": "[3]; 2-5 μM", "value": "partially reverses"},
      {"measurement": "A540 (MTT, relative number of viable cells)", "setting": "[3]; STZ 20 mM + compound 2 μM", "value": "0.934 ± 0.053"},
      {"measurement": "A540 (MTT, relative number of viable cells)", "setting": "[3]; STZ 20 mM + compound 5 μM", "value": "1.078 ± 0.068"},
      {"measurement": "A540 (MTT, relative number of viable cells)", "setting": "[3]; STZ 20 mM + compound 10 μM", "value": "1.144 ± 0.056"},
      {"measurement": "A540 (MTT, relative number of viable cells)", "setting": "[3]; STZ 20 mM + compound 50 μM", "value": "0.718 ± 0.071"}
    ]}
  ]
}
